Measured values reported in article PMC5218480 (PLoS ONE, 2017).

System: MV-4-11 cells
Assay: Gene expression microarray analysis (Affymetrix PrimeView) and GSEA
Assay type: cell-based, human
Parameters: RFU PODN (11730768_x_at) / Fold change /veh PODN (11730768_x_at) / RFU LINC00158 (11744669_a_at) / Fold change /veh LINC00158 (11744669_a_at) / RFU DUSP10 (11751237_a_at) / Fold change /veh DUSP10 (11751237_a_at) / RFU ID3 (11757404_x_at) / Fold change /veh ID3 (11757404_x_at) / RFU PLEKHG5 (11737974_s_at) / Fold change /veh PLEKHG5 (11737974_s_at) / RFU LRRC4B (11730491_at) / Fold change /veh LRRC4B (11730491_at) / RFU GIMAP4 (11747438_a_at) / Fold change /veh GIMAP4 (11747438_a_at) / RFU KRT8 (11758183_x_at) / Fold change /veh KRT8 (11758183_x_at) / RFU CNN1 (11734310_a_at) / Fold change /veh CNN1 (11734310_a_at) / RFU VPS37D (11726825_at) / Fold change /veh VPS37D (11726825_at) / RFU C10orf10 (11716522_x_at) / Fold change /veh C10orf10 (11716522_x_at) / RFU KIR2DL2 /// KIR2DL4 /// KIR2DL5A /// KIR2DL5B /// KIR2DS1 /// KIR2DS2 /// KIR2DS3 /// KIR2DS4 /// KIR3DL3 /// KIR3DL3 /// KIR3DS1 (11738374_at) / Fold change /veh KIR2DL2 /// KIR2DL4 /// KIR2DL5A /// KIR2DL5B /// KIR2DS1 /// KIR2DS2 /// KIR2DS3 /// KIR2DS4 /// KIR3DL3 /// KIR3DL3 /// KIR3DS1 (11738374_at) / RFU C1QL1 (11718748_at) / Fold change /veh C1QL1 (11718748_at) / RFU TMPRSS4 (11747572_a_at) / Fold change /veh TMPRSS4 (11747572_a_at) / RFU HAMP (11756126_x_at) / Fold change /veh HAMP (11756126_x_at) / RFU RNFT2 (11725882_a_at) / Fold change /veh RNFT2 (11725882_a_at) / RFU NR4A2 (11747474_a_at) / Fold change /veh NR4A2 (11747474_a_at) / RFU ABCC12 (11746883_a_at) / Fold change /veh ABCC12 (11746883_a_at) / RFU TMEM136 (11760407_x_at) / Fold change /veh TMEM136 (11760407_x_at) / RFU CLDN22 /// WWC2 (11732394_at) / Fold change /veh CLDN22 /// WWC2 (11732394_at) / RFU HLA-DPB1 (11760878_x_at) / Fold change /veh HLA-DPB1 (11760878_x_at) / RFU SPINT1 (11716480_a_at) / Fold change /veh SPINT1 (11716480_a_at) / RFU GAP43 (11754022_s_at) / Fold change /veh GAP43 (11754022_s_at) / RFU A4GNT (11735810_at) / Fold change /veh A4GNT (11735810_at) / RFU PRB3 (11715151_x_at) / Fold change /veh PRB3 (11715151_x_at) / RFU TUBB4B (11761932_at) / Fold change /veh TUBB4B (11761932_at) / RFU CAPN14 (11732068_a_at) / Fold change /veh CAPN14 (11732068_a_at) / RFU TMCC2 (11721928_a_at) / Fold change /veh TMCC2 (11721928_a_at) / RFU IRGQ (11745062_a_at) / Fold change /veh IRGQ (11745062_a_at) / RFU FAM174B (11720279_a_at) / Fold change /veh FAM174B (11720279_a_at) / RFU TMPRSS4 (11748680_a_at) / Fold change /veh TMPRSS4 (11748680_a_at) / RFU FAM212B (11763350_a_at) / Fold change /veh FAM212B (11763350_a_at) / RFU PLEKHG5 (11743358_a_at) / Fold change /veh PLEKHG5 (11743358_a_at) / RFU ZSCAN30 (11745921_a_at) / Fold change /veh ZSCAN30 (11745921_a_at) / RFU CMKLR1 (11741424_a_at) / Fold change /veh CMKLR1 (11741424_a_at) / RFU LOC101060620 /// MAPK8IP1 (11723275_at) / Fold change /veh LOC101060620 /// MAPK8IP1 (11723275_at) / RFU SPTSSB (11747773_x_at) / Fold change /veh SPTSSB (11747773_x_at) / RFU PRSS12 (11739890_at) / Fold change /veh PRSS12 (11739890_at) / RFU BIN1 (11741810_x_at) / Fold change /veh BIN1 (11741810_x_at) / RFU WNT11 (11732464_a_at) / Fold change /veh WNT11 (11732464_a_at) / RFU C10orf10 (11716521_a_at) / Fold change /veh C10orf10 (11716521_a_at) / RFU C5orf56 (11738089_at) / Fold change /veh C5orf56 (11738089_at) / RFU CYB561 (11721691_x_at) / Fold change /veh CYB561 (11721691_x_at) / RFU ANKRD19P (11752326_a_at) / Fold change /veh ANKRD19P (11752326_a_at) / RFU OR2T12 /// OR2T33 /// OR2T8 (11738714_s_at) / Fold change /veh OR2T12 /// OR2T33 /// OR2T8 (11738714_s_at) / RFU VCAN (11748164_a_at) / Fold change /veh VCAN (11748164_a_at) / RFU JSRP1 (11732532_at) / Fold change /veh JSRP1 (11732532_at) / RFU KRTAP10-11 (11738290_x_at) / Fold change /veh KRTAP10-11 (11738290_x_at) / RFU MYO3A (11730013_a_at) / Fold change /veh MYO3A (11730013_a_at) / RFU EBF3 (11725865_a_at) / Fold change /veh EBF3 (11725865_a_at) / RFU CAMK2N1 (11719241_x_at) / Fold change /veh CAMK2N1 (11719241_x_at) / RFU C5orf56 (11738088_a_at) / Fold change /veh C5orf56 (11738088_a_at) / RFU OLFML3 (11715873_a_at) / Fold change /veh OLFML3 (11715873_a_at) / RFU LOC100653217 /// NTM (11731650_a_at) / Fold change /veh LOC100653217 /// NTM (11731650_a_at) / RFU MAPK11 (11762145_a_at) / Fold change /veh MAPK11 (11762145_a_at) / RFU FIZ1 (11724087_x_at) / Fold change /veh FIZ1 (11724087_x_at) / RFU OASL (11726364_x_at) / Fold change /veh OASL (11726364_x_at) / RFU SOX15 (11748057_x_at) / Fold change /veh SOX15 (11748057_x_at) / RFU CD79A (11719716_a_at) / Fold change /veh CD79A (11719716_a_at) / RFU HIST1H1D (11736915_at) / Fold change /veh HIST1H1D (11736915_at) / RFU CASKIN2 (11723855_a_at) / Fold change /veh CASKIN2 (11723855_a_at) / RFU LOC730098 (11760151_x_at) / Fold change /veh LOC730098 (11760151_x_at) / RFU OR4N2 (11742367_at) / Fold change /veh OR4N2 (11742367_at) / RFU PRRT2 (11749266_a_at) / Fold change /veh PRRT2 (11749266_a_at) / RFU SNX32 (11753110_a_at) / Fold change /veh SNX32 (11753110_a_at) / RFU CDHR5 (11726645_a_at) / Fold change /veh CDHR5 (11726645_a_at) / RFU RCAN1 (11760418_a_at) / Fold change /veh RCAN1 (11760418_a_at) / RFU FAM167A (11723789_a_at) / Fold change /veh FAM167A (11723789_a_at) / RFU FAM26E (11764081_at) / Fold change /veh FAM26E (11764081_at) / RFU ISYNA1 (11749810_s_at) / Fold change /veh ISYNA1 (11749810_s_at) / RFU ACY1 (11761880_at) / Fold change /veh ACY1 (11761880_at) / RFU 11764098_at / Fold change /veh 11764098_at / RFU SAMD14 (11745864_x_at) / Fold change /veh SAMD14 (11745864_x_at) / RFU NPB (11741838_a_at) / Fold change /veh NPB (11741838_a_at) / RFU TMPRSS6 (11731388_a_at) / Fold change /veh TMPRSS6 (11731388_a_at) / RFU KRTAP10-2 (11738614_at) / Fold change /veh KRTAP10-2 (11738614_at) / RFU ARHGAP8 /// PRR5-ARHGAP8 (11727945_x_at) / Fold change /veh ARHGAP8 /// PRR5-ARHGAP8 (11727945_x_at) / RFU KRTAP5-7 /// NADSYN1 (11734609_at) / Fold change /veh KRTAP5-7 /// NADSYN1 (11734609_at) / RFU RASL12 (11751679_a_at) / Fold change /veh RASL12 (11751679_a_at) / RFU CDKN2B (11736163_a_at) / Fold change /veh CDKN2B (11736163_a_at) / RFU PRF1 (11729649_at) / Fold change /veh PRF1 (11729649_at) / RFU, ZNF638 /// ZNF638-IT1 / Fold change vs veh, ZNF638 /// ZNF638-IT1 / RFU, PANK3 / Fold change vs veh, PANK3 / RFU, SH3YL1 / Fold change vs veh, SH3YL1 / RFU, ZEB2 / Fold change vs veh, ZEB2 / RFU, NRIP1 / Fold change vs veh, NRIP1 / RFU, PTTG1IP / Fold change vs veh, PTTG1IP / RFU, CAPN2 / Fold change vs veh, CAPN2 / RFU, MED14 / Fold change vs veh, MED14 / RFU, SNORA58 / Fold change vs veh, SNORA58 / RFU, C1orf63 / Fold change vs veh, C1orf63 / RFU, LRRFIP1 / Fold change vs veh, LRRFIP1 / RFU, NDUFAF7 / Fold change vs veh, NDUFAF7 / RFU, SLC12A2 / Fold change vs veh, SLC12A2 / RFU, IBTK / Fold change vs veh, IBTK / RFU, ESF1 / Fold change vs veh, ESF1 / Fold change vs veh, TMEM50B / RFU, TAOK1 / Fold change vs veh, TAOK1 / RFU, ACBD3 / Fold change vs veh, ACBD3 / RFU, TMA16 / Fold change vs veh, TMA16 / RFU, RWDD3 / Fold change vs veh, RWDD3 / RFU, BCAT1 / Fold change vs veh, BCAT1 / RFU, EDEM3 / Fold change vs veh, EDEM3 / RFU, TMEM33 / Fold change vs veh, TMEM33 / RFU, WDR75 / Fold change vs veh, WDR75 / RFU, AHCTF1 / Fold change vs veh, AHCTF1 / RFU, TFRC / Fold change vs veh, TFRC / RFU, ZDHHC17 / Fold change vs veh, ZDHHC17 / RFU, NOM1 / Fold change vs veh, NOM1 / RFU, ARL8B / Fold change vs veh, ARL8B / RFU, ZBTB11 / Fold change vs veh, ZBTB11 / RFU, TAMM41 / Fold change vs veh, TAMM41 / RFU, KIAA1704 /// LOC100996395 / Fold change vs veh, KIAA1704 /// LOC100996395 / RFU, ING1 / Fold change vs veh, ING1 / RFU, TRMT61B / Fold change vs veh, TRMT61B / RFU, FUBP3 / Fold change vs veh, FUBP3 / RFU, TP53 / Fold change vs veh, TP53 / RFU, TNKS2 / Fold change vs veh, TNKS2 / RFU, ZFP14 / Fold change vs veh, ZFP14 / RFU, ACTR2 / Fold change vs veh, ACTR2 / RFU, PPP3R1 / Fold change vs veh, PPP3R1 / RFU, PIK3R1 / Fold change vs veh, PIK3R1 / RFU, HNRNPA1 / Fold change vs veh, HNRNPA1 / RFU, RNF170 / Fold change vs veh, RNF170 / RFU, ZNF28 / Fold change vs veh, ZNF28 / RFU, RNGTT / Fold change vs veh, RNGTT / RFU, OGT / Fold change vs veh, OGT / RFU, BRD1 / Fold change vs veh, BRD1 / RFU, MARS / Fold change vs veh, MARS / RFU, ZNF655 / Fold change vs veh, ZNF655 / RFU, FAHD1 / Fold change vs veh, FAHD1 / RFU, BDP1 / Fold change vs veh, BDP1 / RFU, LRRCC1 / Fold change vs veh, LRRCC1 / RFU, ARID1A / Fold change vs veh, ARID1A / RFU, ZNF146 / Fold change vs veh, ZNF146 / RFU, ZNF330 / Fold change vs veh, ZNF330 / RFU, GPN3 / Fold change vs veh, GPN3 / RFU, C9orf123 / Fold change vs veh, C9orf123 / RFU, N4BP2L2 / Fold change vs veh, N4BP2L2 / RFU, ARFIP1 / Fold change vs veh, ARFIP1 / RFU, FAM179B / Fold change vs veh, FAM179B / RFU, BCL10 / Fold change vs veh, BCL10 / RFU, UHRF1BP1L / Fold change vs veh, UHRF1BP1L / RFU, BET1 / Fold change vs veh, BET1 / RFU, CNOT2 / Fold change vs veh, CNOT2 / RFU, ZNF268 / Fold change vs veh, ZNF268 / Fold change vs veh, ZNF507 / RFU, DGCR2 / Fold change vs veh, DGCR2 / RFU, WDSUB1 / Fold change vs veh, WDSUB1 / Fold change vs veh, HSP90B1 /// MIR3652 / RFU, ADSS / Fold change vs veh, ADSS / RFU, GK / Fold change vs veh, GK / RFU, ZNF148 / Fold change vs veh, ZNF148 / RFU, TAF9 / Fold change vs veh, TAF9 / RFU, SLC1A5 / Fold change vs veh, SLC1A5 / RFU, SLMO2 / Fold change vs veh, SLMO2 / RFU, ABCC4 / Fold change vs veh, ABCC4 / RFU, LOC101060439 /// RAP1B / Fold change vs veh, LOC101060439 /// RAP1B / RFU, RFX7 / Fold change vs veh, RFX7 / RFU, GTPBP10 / Fold change vs veh, GTPBP10 / RFU, CNEP1R1 / Fold change vs veh, CNEP1R1 / RFU, BIVM-ERCC5 /// ERCC5 / Fold change vs veh, BIVM-ERCC5 /// ERCC5 / RFU, ILF3 / Fold change vs veh, ILF3 / RFU 11762660_at / Fold change /veh 11762660_at / RFU VCAN (11757783_s_at) / Fold change /veh VCAN (11757783_s_at) / RFU DDX43 (11728927_at) / Fold change /veh DDX43 (11728927_at) / RFU KRT8 (11758188_x_at) / Fold change /veh KRT8 (11758188_x_at) / RFU NKD1 (11759106_at) / Fold change /veh NKD1 (11759106_at) / RFU SRD5A1 (11742802_a_at) / Fold change /veh SRD5A1 (11742802_a_at) / RFU TPSAB1 /// TPSB2 (11721975_s_at) / Fold change /veh TPSAB1 /// TPSB2 (11721975_s_at) / RFU GSTM3 (11746129_a_at) / Fold change /veh GSTM3 (11746129_a_at) / RFU IL23R (11737362_x_at) / Fold change /veh IL23R (11737362_x_at) / RFU TMEM51 (11727254_a_at) / Fold change /veh TMEM51 (11727254_a_at) / RFU PIWIL2 (11732686_x_at) / Fold change /veh PIWIL2 (11732686_x_at) / RFU ORM1 (11744905_x_at) / Fold change /veh ORM1 (11744905_x_at) / RFU CCDC152 (11743942_at) / Fold change /veh CCDC152 (11743942_at) / RFU ECM1 (11717891_a_at) / Fold change /veh ECM1 (11717891_a_at) / RFU IL23R (11748794_a_at) / Fold change /veh IL23R (11748794_a_at) / RFU TNFAIP8L3 (11732012_x_at) / Fold change /veh TNFAIP8L3 (11732012_x_at) / RFU MBOAT4 (11741988_at) / Fold change /veh MBOAT4 (11741988_at) / RFU 11764193_at / Fold change /veh 11764193_at / RFU TMEM53 (11763286_at) / Fold change /veh TMEM53 (11763286_at) / RFU MAGEB2 (11727129_at) / Fold change /veh MAGEB2 (11727129_at) / RFU TMEM200A (11744735_a_at) / Fold change /veh TMEM200A (11744735_a_at) / RFU CCDC152 (11751479_a_at) / Fold change /veh CCDC152 (11751479_a_at) / RFU FAM211A (11726209_a_at) / Fold change /veh FAM211A (11726209_a_at) / RFU RGS16 (11746705_a_at) / Fold change /veh RGS16 (11746705_a_at) / RFU VCAN (11755009_s_at) / Fold change /veh VCAN (11755009_s_at) / RFU RHOB (11743442_s_at) / Fold change /veh RHOB (11743442_s_at) / RFU RGS16 (11720943_a_at) / Fold change /veh RGS16 (11720943_a_at) / RFU RGS16 (11720944_at) / Fold change /veh RGS16 (11720944_at) / RFU, VPS4B / Fold change vs veh, VPS4B / RFU, CREB1 / Fold change vs veh, CREB1 / RFU, DNAJC13 / Fold change vs veh, DNAJC13 / RFU, GNAQ / Fold change vs veh, GNAQ / RFU, CDK5R1 / Fold change vs veh, CDK5R1 / RFU, ZRANB3 / Fold change vs veh, ZRANB3 / RFU, CUL4A / Fold change vs veh, CUL4A / RFU, CCNY / Fold change vs veh, CCNY / RFU, UFL1 / Fold change vs veh, UFL1 / RFU, COG3 / Fold change vs veh, COG3 / RFU, DIAPH2 / Fold change vs veh, DIAPH2 / RFU, SKA2 / Fold change vs veh, SKA2 / RFU, AFF3 / Fold change vs veh, AFF3 / RFU, LMF1 / Fold change vs veh, LMF1 / RFU, IPO11 / Fold change vs veh, IPO11 / RFU, DFFB / Fold change vs veh, DFFB / RFU, FOXP1 / Fold change vs veh, FOXP1 / RFU, CARD8 / Fold change vs veh, CARD8 / RFU, STRN3 / Fold change vs veh, STRN3 / RFU, ADK / Fold change vs veh, ADK / RFU, RASSF2 / Fold change vs veh, RASSF2 / RFU, WIPF1 / Fold change vs veh, WIPF1 / RFU, LARP1B / Fold change vs veh, LARP1B / RFU, RASA1 / Fold change vs veh, RASA1 / RFU, RB1 / Fold change vs veh, RB1 / RFU, PPFIA1 / Fold change vs veh, PPFIA1 / RFU, MAT2A / Fold change vs veh, MAT2A / RFU, CCT5 / Fold change vs veh, CCT5 / RFU, WDR92 / Fold change vs veh, WDR92 / RFU, CUX1 / Fold change vs veh, CUX1 / RFU, TTC7A / Fold change vs veh, TTC7A / RFU, TMEM135 / Fold change vs veh, TMEM135 / RFU, DEPTOR / Fold change vs veh, DEPTOR / RFU, CPM / Fold change vs veh, CPM / RFU, DNAJB6 / Fold change vs veh, DNAJB6 / RFU, CACNA2D3 / Fold change vs veh, CACNA2D3 / RFU, DTX4 / Fold change vs veh, DTX4 / RFU, TFCP2 / Fold change vs veh, TFCP2 / RFU, GMCL1 /// GMCL1P1 / Fold change vs veh, GMCL1 /// GMCL1P1 / RFU, AEBP2 / Fold change vs veh, AEBP2 / RFU, SNHG1 /// SNORD22 /// SNORD25 /// SNORD26 /// SNORD27 /// SNORD28 /// SNORD29 /// SNORD31 / Fold change vs veh, SNHG1 /// SNORD22 /// SNORD25 /// SNORD26 /// SNORD27 /// SNORD28 /// SNORD29 /// SNORD31 / Fold change (Aza/veh), C12orf56 (ProbeSet 11735607_a_at) / Fold change (ACY-1035/veh), C12orf56 (ProbeSet 11735607_a_at) / Fold change (Aza/veh), FGFR1OP (ProbeSet 11751329_s_at) / Fold change (ACY-1035/veh), FGFR1OP (ProbeSet 11751329_s_at) / Fold change (Aza/veh), VPS36 (ProbeSet 11739960_a_at) / Fold change (ACY-1035/veh), VPS36 (ProbeSet 11739960_a_at) / RFU SYPL1 (11715823_x_at) / Fold change /veh SYPL1 (11715823_x_at) / RFU IGFBP7 (11715501_s_at) / Fold change /veh IGFBP7 (11715501_s_at) / RFU REEP3 (11722064_at) / Fold change /veh REEP3 (11722064_at) / RFU IGLL1 (11728026_x_at) / Fold change /veh IGLL1 (11728026_x_at): dose or concentration left out as unconfirmed
Details: MV-4-11 cells, 48 hours

Nc1ncn([C@@H]2O[C@H](CO)[C@@H](O)[C@H]2O)c(=O)n1 [azacitidine]
Fold change /veh SPTSSB (11747773_x_at): 1.09
